Read-outs that look alike come from different tables or passages of the source.
Experiments:
Test in all cases: β-arrestin recruitment assay
Type in all cases: cell-based
GPR143 (pm-GPR143) [1] = biological target: T1, GPR143 (pm-GPR143) (Homo sapiens, UniProt P51810, E330A/L223A/L224A/W329A)
GPR143 (pm-GPR143) [2] = biological target: T1, GPR143 (pm-GPR143); remark: listed apart in the source
GPR143 (wt-GPR143) = GPR143 (wt-GPR143) (Homo sapiens, UniProt P51810)
Sequence of GPR143 (wt-GPR143) (P51810 whole entry): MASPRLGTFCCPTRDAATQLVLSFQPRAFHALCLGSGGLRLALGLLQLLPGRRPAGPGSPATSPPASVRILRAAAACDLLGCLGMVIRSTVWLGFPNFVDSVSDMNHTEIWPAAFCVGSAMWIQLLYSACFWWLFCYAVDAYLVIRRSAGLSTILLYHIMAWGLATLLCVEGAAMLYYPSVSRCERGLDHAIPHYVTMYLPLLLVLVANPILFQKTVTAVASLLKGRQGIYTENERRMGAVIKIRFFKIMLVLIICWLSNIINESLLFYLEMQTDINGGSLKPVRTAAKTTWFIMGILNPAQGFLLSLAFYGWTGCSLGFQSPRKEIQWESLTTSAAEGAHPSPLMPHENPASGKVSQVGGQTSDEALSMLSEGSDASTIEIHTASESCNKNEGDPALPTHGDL

T1 sequence (P51810 whole entry L223A/L224A/W329A/E330A): as the sequence (P51810 whole entry) above, with L223A, L224A, W329A, E330A counted along it

CCOc1ccc2nc3cc(N)ccc3c(N)c2c1 [ethacridine lactate]
EC50 (GPR143 (pm-GPR143) [1]): 26.1 ± 1.03 µM

O=C(Nc1ccc([N+](=O)[O-])cc1Cl)c1cc(Cl)ccc1O [niclosamide]
EC50 (GPR143 (pm-GPR143) [1]): 3.4 ± 1.11 µM

O=c1[nH]c2ccccc2n1C1CCN(CCCC(c2ccc(F)cc2)c2ccc(F)cc2)CC1 [pimozide]
EC50 (GPR143 (pm-GPR143) [2]): 2.72 ± 1.17 µM | EC50 (GPR143 (wt-GPR143)): 4.62 ± 1.37 µM

— publication PMC5482243 (Investigative Ophthalmology & Visual Science, 2017)
